# Experimental data as given in patent publication US8575158B2, “1-phenyl-substituted heterocyclyl derivatives and their use as prostaglandin D2 receptor modulators” (Actelion Pharmaceuticals Ltd., priority 2010, dated 2013).
# Target: T1, hCRTH2 receptor (Homo sapiens, UniProt Q9Y5Y4)
# T1 construct: expressed in transfected cells; host or cells: HEK293
# T1 sequence (Q9Y5Y4 1-395): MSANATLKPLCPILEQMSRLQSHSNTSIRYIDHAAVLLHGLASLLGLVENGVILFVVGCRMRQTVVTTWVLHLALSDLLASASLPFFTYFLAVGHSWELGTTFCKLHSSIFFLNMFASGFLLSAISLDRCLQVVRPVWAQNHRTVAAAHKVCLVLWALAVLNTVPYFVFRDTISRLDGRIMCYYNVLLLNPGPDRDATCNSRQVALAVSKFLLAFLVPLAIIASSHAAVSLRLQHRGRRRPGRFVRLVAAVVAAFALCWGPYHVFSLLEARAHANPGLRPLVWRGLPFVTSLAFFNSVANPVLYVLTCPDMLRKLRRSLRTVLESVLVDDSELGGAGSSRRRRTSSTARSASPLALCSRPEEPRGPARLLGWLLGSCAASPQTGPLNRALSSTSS
# Experiment: Radioligand displacement assay (3H-PGD2) on hCRTH2 receptor membranes
# Format: binding
# Settings: antagonistic activity, 3H-PGD2 radioligand displacement, HEK293-hCRTH2 membranes
# Protocol: First, recombinant HEK293-hCRTH2 cells were detached from culture plates into 5 ml buffer A/plate (Buffer A: 5 mM Tris, 1 mM MgCl2-6H2O pH=7.4) using a rubber policeman. Cells were then transferred into centrifugation tubes and centrifuged for 5 min at 400 g. The cell pellet was resuspended in the same buffer and tubes were frozen at −80° C. Cells were thawed and membrane fragments were generated by homogenization using a polytron homogenizer (30 seconds). The membrane fragments were then centrifuged at 3000 g for 20 minutes and resuspended in buffer C (Buffer C: 75 mM Tris, 25 mM MgCl2, 250 mM Saccharose pH 7.4). Aliquots of membrane fragments were stored at −20° C.
# Binding assay was performed in a final assay volume of 250 μl. First, 25 μl of test compound, previously diluted in Binding-Buffer (Binding-Buffer: 50 mM Tris-Base, 100 mM NaCl, 1 mM EDTA, 0.1% BSA (protease free), 0.01% NaN3, 10 mM MnCl2, pH 7.0) was placed into each well. After addition of 75 μl Binding-Buffer, 50 μl of the radioligand ^3H-PGD2 (at 2.5 nM (220.000 dpm/well) from ANAWA ART0662) was added to each well. Binding assay was started by addition of 100 μl CRTH2 membrane fragments, reaching a final concentration of 20 μg/well. For non-specific binding, PGD2 was added to the reaction mixture to […] final concentration.
# This assay mix was incubated for 90 minutes at room temperature and then filtered through a GF/C filter 96-well plate which was pre-soaked for 3 hours in 0.5% polyethyleneimine (PEI). The filter-wells were washed three times with ice cold Binding-Buffer. Then, 40 μl of Microscint-40 (Packard) was added to each well and the retained radioactivity quantified in a Topcount (Packard).
row,IC50 [nM],Compound
1,69.6,Cc1ccc(CCC(=O)N2CCc3ccccc3C2c2cc(Cl)ccc2OCC(=O)O)c(C)c1 (racemic) [Example 454]
2,500,Cc1csc(=O)n1CCC(=O)N1CCc2ccccc2C1c1cc(Cl)ccc1OCC(=O)O (racemic) [Example 452]
3,152,O=C(O)COc1ccc(Cl)cc1C1c2ccccc2CCN1C(=O)COc1cncc(Cl)c1 (racemic) [Example 470]
4,108,Cc1cn(CC(=O)N2CCc3ccccc3C2c2cc(Cl)ccc2OCC(=O)O)c2ccccc12 (racemic) [Example 488]
5,1.72,"Cn1nc(COC(=O)N2CCc3ccccc3[C@H]2c2cc(Cl)ccc2OCC(=O)O)c2ccccc21 [Example 296, (S)-1-(2-Carboxymethoxy-5-chloro-phenyl)-3,4-dihydro-1H-isoquinoline-2-carboxylic acid 1-methyl-1H-indazol-3-ylmethyl ester]"
6,103,Cc1ccc([C@@H]2C[C@H]2C(=O)N2CCc3ccccc3C2c2cc(Cl)ccc2OCC(=O)O)cc1 (mixture of isomers) [Example 420]

# Continued, molecule first:
row,Compound,IC50 [nM]
1,"O=C(O)COc1ccc(Cl)cc1[C@@H]1c2ccccc2CCN1C(=O)OCc1nc2ccccc2s1 [Example 294, (S)-1-(2-Carboxymethoxy-5-chloro-phenyl)-3,4-dihydro-1H-isoquinoline-2-carboxylic acid benzothiazol-2-ylmethyl ester]",1.94
2,COc1ccc2onc(CC(=O)N3Cc4ccccc4C3c3cc(Cl)ccc3OCC(=O)O)c2c1 (racemic) [Example 518],20.1
3,C[C@@H]1C[C@H]1C(=O)N1CCc2ccccc2[C@H]1c1cc(Cl)ccc1OCC(=O)O [Example 462],80.9
4,"O=C(O)COc1ccc(Cl)cc1[C@@H]1c2ccccc2CCN1C(=O)OCc1cncnc1 [Example 284, (S)-1-(2-Carboxymethoxy-5-chloro-phenyl)-3,4-dihydro-1H-isoquinoline-2-carboxylic acid pyrimidin-5-ylmethyl ester]",0.86
5,"Cc1noc(C)c1COC(=O)N1CCc2c(ccc(F)c2F)[C@H]1c1cc(Cl)ccc1OCC(=O)O [Example 307, (S)-1-(2-Carboxymethoxy-5-chloro-phenyl)-5,6-difluoro-3,4-dihydro-1H-isoquinoline-2-carboxylic acid 3,5-dimethyl-isoxazol-4-ylmethyl ester]",3.34
6,"O=C(O)COc1ccc(Cl)cc1[C@@H]1c2ccc(F)c(F)c2CCN1C(=O)OCc1nc2ccccc2s1 [Example 319, (S)-1-(2-Carboxymethoxy-5-chloro-phenyl)-5,6-difluoro-3,4-dihydro-1H-isoquinoline-2-carboxylic acid benzothiazol-2-ylmethyl ester]",1.44
7,Cc1nc2ccccc2n1CCOC(=O)N1CCc2c(ccc(F)c2F)[C@H]1c1cc(Cl)ccc1OCC(=O)O [Example 318],138
8,O=C(O)COc1ccc(Cl)cc1C1c2ccc(F)cc2CCN1C(=O)[C@@H]1C[C@H]1c1ccccc1 (mixture of isomers) [Example 428],1.33
9,"Cn1cncc1COC(=O)N1CCc2c(ccc(F)c2F)[C@H]1c1cc(Cl)ccc1OCC(=O)O [Example 315, (S)-1-(2-Carboxymethoxy-5-chloro-phenyl)-5,6-difluoro-3,4-dihydro-1H-isoquinoline-2-carboxylic acid 3-methyl-3H-imidazol-4-ylmethyl ester]",2.82
10,"Cc1nn(CCC(=O)N2Cc3ccccc3C2c2cc(Cl)ccc2OCC(=O)O)c2ccccc12 (single isomer, unassigned) [Example 533, (4-Chloro-2-{2-[3-(3-methyl-indazol-1-yl)-propionyl]-2,3-dihydro-1H-isoindol-1-yl}-phenoxy)-acetic acid]",6.09
11,"Cc1nn(CCC(=O)N2Cc3ccccc3C2c2cc(Cl)ccc2OCC(=O)O)c2cc(Cl)ccc12 (single isomer, unassigned) [Example 532, (4-Chloro-2-{2-[3-(6-chloro-3-methyl-indazol-1-yl)-propionyl]-2,3-dihydro-1H-isoindol-1-yl}-phenoxy)-acetic acid]",40.7
12,Cc1nn(CCC(=O)N2CCc3cc(F)ccc3[C@H]2c2cc(Cl)ccc2OCC(=O)O)c2cccc(F)c12 [Example 391],158

# Same assay, conditions: antagonistic activity; 3H-PGD2 displacement on HEK293-hCRTH2 membrane fragments
row,IC50 [nM],Compound
1,3.61,O=C(O)COc1ccc(Cl)cc1C1c2ccccc2CCN1C(=O)OCc1ccccc1F (racemic) [Example 234]
2,27.7,Cc1cccc(COCC(=O)N2CCc3ccccc3C2c2cc(F)ccc2OCC(=O)O)c1 (racemic) [Example 193]
3,12,Cc1cc(COC(=O)N2CCc3ccccc3C2c2cc(Cl)ccc2OCC(=O)O)nn1C (racemic) [Example 271]
4,4.55,COc1ccccc1COC(=O)N1CCc2ccccc2C1c1cc(Cl)ccc1OCC(=O)O (racemic) [Example 233]
5,1.07,O=C(O)COc1ccc(Cl)cc1C1c2ccccc2CCN1C(=O)OCc1cccc(Cl)c1Cl (racemic) [Example 242]
6,27.5,"Cn1cc(CCC(=O)N2CCc3ccccc3C2c2cc(F)ccc2OCC(=O)O)c2ccccc21 (racemic) [Example 66, (±)-(4-Fluoro-2-{2-[3-(1-methyl-1H-indol-3-yl)-propionyl]-1,2,3,4-tetrahydro-isoquinolin-1-yl}-phenoxy)-acetic acid]"
7,71.3,CC(C)(C)OC(=O)N1CCc2ccccc2[C@H]1c1cc(Cl)ccc1OCC(=O)O [Example 228]
8,148,"Cc1ccc(OCCC(=O)N2CCc3ccccc3C2c2cc(Cl)ccc2OCC(=O)O)cc1 (racemic) [Example 88, (±)-{4-Chloro-2-[2-(3-p-tolyloxy-propionyl)-1,2,3,4-tetrahydro-isoquinolin-1-yl]-phenoxy}-acetic acid]"
9,4.83,"Cc1ccccc1C1CC1C(=O)N1CCc2ccccc2C1c1cc(Cl)ccc1OCC(=O)O (single isomer, unassigned) [Example 154, (±)-{4-Chloro-2-[2-((trans)-2-o-tolyl-cyclopropanecarbonyl)-1,2,3,4-tetrahydro-isoquinolin-1-yl]-phenoxy}-acetic acid (diastereosiomer 2)]"

# The next lines start with the molecule.
row,Compound,IC50 [nM]
1,"O=C(O)CCCOc1ccc(F)cc1C1c2ccccc2CCN1C(=O)OCc1ccccc1 (racemic) [Example 217, (±)-1-[2-(3-Carboxy-propoxy)-5-fluoro-phenyl]-3,4-dihydro-1H-isoquinoline-2-carboxylic acid benzyl ester]",110
2,"O=C(O)COc1ccc(F)cc1C1c2ccccc2CCN1C(=O)CCc1nc2ccccc2s1 (racemic) [Example 59, (±)-{2-[2-(3-Benzothiazol-2-yl-propionyl)-1,2,3,4-tetrahydro-isoquinolin-1-yl]-4-fluoro-phenoxy}-acetic acid]",794
3,O=C(O)COc1ccc(F)cc1C1c2ccccc2CCN1C(=O)CNS(=O)(=O)c1ccccc1 (racemic) [Example 205],928
4,CCS(=O)(=O)c1cccc2c1CCN(C(=O)OCc1ccccc1)C2c1cc(F)ccc1OCC(=O)O (racemic) [Example 186],311
5,"O=C(O)COc1ccc(Cl)cc1C1c2cccc(F)c2CCN1C(=O)OCc1ccccc1 (racemic) [Example 18, (±)-1-(2-Carboxymethoxy-5-chloro-phenyl)-5-fluoro-3,4-dihydro-1H-isoquinoline-2-carboxylic acid benzyl ester]",5.43

# Same assay, conditions: radioligand displacement (3H-PGD2), hCRTH2 receptor membranes; antagonistic activity
row,IC50 [nM],Compound
1,3.75,"O=C(O)COc1ccc(Cl)cc1[C@@H]1c2ccccc2CCN1C(=O)[C@@H]1C[C@H]1c1ccccc1C(F)(F)F [Example 562, (4-Chloro-2-{(S)-2-[(1R,2R)-2-(2-trifluoromethyl-phenyl)-cyclopropanecarbonyl]-1,2,3,4-tetrahydro-isoquinolin-1-yl}-phenoxy)-acetic acid]"
2,2.17,"O=C(O)COc1ccc(Cl)cc1[C@@H]1c2ccccc2CCN1C(=O)[C@@H]1C[C@H]1c1ccc(F)cc1 [Example 566, (4-Chloro-2-{(S)-2-[(1R,2R)-2-(4-fluoro-phenyl)-cyclopropanecarbonyl]-1,2,3,4-tetrahydro-isoquinolin-1-yl}-phenoxy)-acetic acid]"
3,2.64,"O=C(O)COc1ccc(Cl)cc1[C@@H]1c2ccccc2CCN1C(=O)[C@@H]1C[C@H]1c1cccc(F)c1 [Example 565, (4-Chloro-2-{(S)-2-[(1R,2R)-2-(3-fluoro-phenyl)-cyclopropanecarbonyl]-1,2,3,4-tetrahydro-isoquinolin-1-yl}-phenoxy)-acetic acid]"
